Results published in ChEMBL document CHEMBL3421566 (J Med Chem, 2015).
≈ marks a conversion by molar mass, not a printed value. Calls of active or inactive are those of the source. The rule behind the calls is not given here.

How the values were obtained:
Escherichia coli [1] = test: Antibacterial activity against Escherichia coli ATCC 25922 by two-fold broth microdilution method; format: functional
Escherichia coli [2] = test: Antibacterial activity against Escherichia coli K-12 by two-fold broth microdilution method; format: functional
Plasmodium falciparum [3] = test: Schizontocidal activity against Plasmodium falciparum K1 infected in human RBC after 72 hrs by Malstat reagent-based spectrophotometric analysis; format: functional; settings: K1, 72 h
[4] = Inhibition of recombinant Plasmodium falciparum Dxr expressed in Escherichia coli C43(DE3) using DOXP as substrate assessed as NADPH oxidation by spectrophotometric analysis
[5] = target: T1, 1-deoxy-D-xylulose 5-phosphate reductoisomerase (Mycobacterium tuberculosis, UniProt P9WNS1); test: Inhibition of recombinant Mycobacterium tuberculosis Dxr expressed in Escherichia coli BL21 CodonPlus (DE3)-RIL cells using DOXP as substrate assessed as NADPH oxidation by spectrophotometric analysis
T1 sequence (P9WNS1 whole entry): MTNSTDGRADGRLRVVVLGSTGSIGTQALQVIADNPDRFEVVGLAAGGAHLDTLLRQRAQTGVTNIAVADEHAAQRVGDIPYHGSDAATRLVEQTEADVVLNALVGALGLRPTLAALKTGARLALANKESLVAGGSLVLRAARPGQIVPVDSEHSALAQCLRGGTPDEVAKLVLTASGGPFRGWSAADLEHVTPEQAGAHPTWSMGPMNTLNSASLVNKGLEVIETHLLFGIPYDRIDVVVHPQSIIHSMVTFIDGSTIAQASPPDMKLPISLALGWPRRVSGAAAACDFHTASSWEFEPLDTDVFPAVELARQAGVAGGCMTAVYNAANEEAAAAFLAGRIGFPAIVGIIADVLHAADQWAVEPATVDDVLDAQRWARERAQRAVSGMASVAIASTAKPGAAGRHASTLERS

[6] = test system: Mycolicibacterium smegmatis; test: Antibacterial activity against Mycobacterium smegmatis ATCC 700084 after 24 to 48 hrs by two-fold broth microdilution method; format: functional
[7] = target: T2, 1-deoxy-D-xylulose 5-phosphate reductoisomerase (Escherichia coli, UniProt W8T2T2); test: Inhibition of recombinant Escherichia coli Dxr expressed in Escherichia coli BL21 CodonPlus (DE3)-RIL cells using DOXP as substrate assessed as NADPH oxidation preincubated for 5 mins with NADPH followed by substrate addition by spectrophotometric analysis
T2 sequence (W8T2T2 whole entry): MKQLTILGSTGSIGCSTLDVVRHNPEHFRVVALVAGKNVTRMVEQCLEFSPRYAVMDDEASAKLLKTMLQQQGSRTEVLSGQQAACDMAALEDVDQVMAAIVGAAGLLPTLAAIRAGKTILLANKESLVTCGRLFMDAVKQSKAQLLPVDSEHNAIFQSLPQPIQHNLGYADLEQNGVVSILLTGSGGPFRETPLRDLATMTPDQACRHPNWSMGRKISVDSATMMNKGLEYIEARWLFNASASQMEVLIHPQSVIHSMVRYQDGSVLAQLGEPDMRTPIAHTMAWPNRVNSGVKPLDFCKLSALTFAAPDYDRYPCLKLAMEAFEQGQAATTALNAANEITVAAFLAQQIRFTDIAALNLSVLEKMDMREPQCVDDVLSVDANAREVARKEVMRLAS

[8] = test system: Mycolicibacterium smegmatis; test: Antibacterial activity against Mycobacterium smegmatis ATCC 607 after 24 to 48 hrs by two-fold broth microdilution method; format: functional
Escherichia coli [9] = test: Antibacterial activity against Escherichia coli ATCC 8739 by two-fold broth microdilution method; format: functional
[10] = target: T3, 1-deoxy-D-xylulose 5-phosphate reductoisomerase (Mycobacterium tuberculosis) (UniProt P9WNS1); test: Inhibition of recombinant Mycobacterium tuberculosis Dxr expressed in Escherichia coli BL21 CodonPlus (DE3)-RIL cells using DOXP as substrate assessed as NADPH oxidation at 100 uM by spectrophotometric analysis
T3 sequence (whole entry): T1 sequence (P9WNS1 whole entry)

[11] = target: T4, 1-deoxy-D-xylulose 5-phosphate reductoisomerase (Escherichia coli) (UniProt W8T2T2); test: Inhibition of recombinant Escherichia coli Dxr expressed in Escherichia coli BL21 CodonPlus (DE3)-RIL cells using DOXP as substrate assessed as NADPH oxidation at 100 uM preincubated for 5 mins with NADPH followed by substrate addition by spectrophotometric analysis
T4 sequence (whole entry): T2 sequence (W8T2T2 whole entry)

Plasmodium falciparum [12] = test: Inhibition of recombinant Plasmodium falciparum Dxr expressed in Escherichia coli C43(DE3) using DOXP as substrate assessed as NADPH oxidation at 100 uM by spectrophotometric analysis

| Structure (SMILES) | MIC50 (Escherichia coli [1]) [µM] | MIC50 (Escherichia coli [2]) [µM] | MIC50 (Plasmodium falciparum [3]) [µM] | IC50 [4] [µM] | IC50 [5] [µM] | MIC50 [6] [µM] | IC50 [7] [µM] | MIC50 [8] [µM] | MIC50 (Escherichia coli [9]) [µM] | inhibition [10] | inhibition [11] | inhibition (Plasmodium falciparum [12]) |
| --- | --- | --- | --- | --- | --- | --- | --- | --- | --- | --- | --- | --- |
| CN(O)C(=O)CC(CCCCc1ccccc1)CP(=O)(O)O (centres undefined) | > 250 | > 250 | < 0.25 | 0.069 | 6.67 | > 250 | 273 | > 250 | > 250 |  |  |  |
| CN(O)C(=O)CC(CP(=O)(O)O)c1ccc(Cl)c(Cl)c1 (centres undefined) | > 250 | > 250 | > 64 |  |  | > 250 |  | > 250 | > 250 | inactive | inactive |  |
| CN(O)C(=O)CCCP(=O)(O)O | 15.6 (≈ 3.08 µg/mL) | 31.2 (≈ 6.16 µg/mL) | 0.26 (≈ 0.0513 µg/mL) |  | 0.159 | > 250 | 1.15 | > 250 | 31.2 (≈ 6.16 µg/mL) |  |  |  |
| CN(O)C(=O)CC(Cc1ccccc1)CP(=O)(O)O (centres undefined) |  |  | ≥ 56.8 |  |  |  |  |  |  |  | Active | Active |
| Cc1ccc(C(CC(=O)N(C)O)CP(=O)(O)O)cc1 (centres undefined) | > 250 | > 250 | > 64 | 9.3 |  | > 250 |  | > 250 | > 250 | inactive | inactive |  |
| CN(O)C(=O)CC(CP(=O)(O)O)c1ccc(Cl)cc1 (centres undefined) | > 250 | > 250 | > 64 |  |  | > 250 |  | > 250 | > 250 | inactive | inactive |  |
| CC(=O)N(O)CCCP(=O)(O)O [FR-900098] | 62.5 (≈ 12.3 µg/mL) | 15.6 (≈ 3.08 µg/mL) |  |  |  | > 250 |  | > 250 | 7.8 (≈ 1.54 µg/mL) |  |  |  |
| CC(CC(=O)N(C)O)CP(=O)(O)O (centres undefined) |  |  | 0.74 (≈ 0.156 µg/mL) |  | 0.205 |  | 7.13 |  |  |  |  |  |
| O=CN(O)CCCP(=O)(O)O [FOSMIDOMYCIN] | 250 (≈ 45.8 µg/mL) | 7.8 (≈ 1.43 µg/mL) |  | 0.036 |  | > 250 |  | > 250 | 0.98 (≈ 0.179 µg/mL) |  |  |  |
| CN(O)C(=O)CC(CP(=O)(O)O)c1ccccc1 (centres undefined) | > 250 | > 250 | > 64 | 3.3 |  | > 250 |  | > 250 | > 250 | inactive | inactive |  |
| COc1ccc(C(CC(=O)N(C)O)CP(=O)(O)O)cc1 (centres undefined) | > 250 | > 250 | > 64 | 18.8 |  | > 250 |  | > 250 | > 250 | inactive | inactive |  |
| CN(O)C(=O)CC(CCCc1ccccc1)CP(=O)(O)O (centres undefined) | > 250 | > 250 | 0.43 (≈ 0.136 µg/mL) | 0.117 | 0.843 | > 250 | 10.3 | > 250 | > 250 |  |  |  |
| CN(O)C(=O)CC(CCc1ccccc1)CP(=O)(O)O (centres undefined) | > 250 | > 250 | 35.4 (≈ 10.7 µg/mL) | 1.36 | 31.4 | > 250 |  | > 250 | > 250 |  |  |  |
